Results taken from patent US20130115322A1, “Therapeutic Compositions and Methods for Treating Cell Dysplasia Using Extracts From Raspberry and Strawberry” (priority 2003, published 2013).

Experiments:
VEGF = settings: reported; cited from earlier work
COX-2 = COX-2 expression in RE-149 DHD cells; assay type: cell-based, rat; settings: RE-149 DHD cell lines
Text: (§1) Several BRB extracts and anthocyanins have been administered in JB6 CI 41 mouse epidermal cell lines and RE-149 DHD rat epithelium cancer cell lines, and such model systems are predictive of in vivo biological activity. As further discussed below, the BRB methanol fraction inhibits benzo(a)pyrene-7,8-diol-9,10-epoxide (B(a)PDE)-induced transactivation of transcription factor AP-1 and nuclear factor κB (NFκB, NFKB) activity in JB6 CI 41 cell lines; BRB ethanol extracts inhibited cell proliferation in RE-149 DHD cell lines; and the anthocyanins, cyanidin-3-O-glucoside and cyanidin-3-O-rutinoside derived from BRB ethanol extracts, suppressed the expression of COX-2 and iNOS in RE-149 DHD cell lines. A further embodiment is that even the unpurified components of the BRB ethanol extracts are believed to be safe for human consumption, being derived from a consumable foodstuff using consumable extraction solvents.

iNOS [1] = assay: iNOS expression in RE-149 DHD cells; assay type: cell-based, rat; settings: RE-149 DHD cell lines
Text: as §1

[2] = system: normal, premalignant and malignant oral epithelial cell lines; assay: Growth and cytotoxicity in oral epithelial cell lines; assay type: cell-based, human
Procedure: In particular, using a panel of normal, premalignant and malignant oral epithelial cell lines, the cellular (growth inhibiting and cytotoxic) effects of phytochemicals found in black raspberry fractions was determined (i.e., F001, F003, DM, and ME/Et, see FIGS. 2A and 2B).

iNOS [3] = target: T1, iNOS (Homo sapiens, UniProt P35228); settings: cytokine-induced colorectal adenocarcinoma DLD cells; cited from earlier work
T1 construct: its specificity for iNOS was established in cytokine-induced colorectal adenocarcinoma DLD cells; endogenous in cells; host or cells: cytokine-induced colorectal adenocarcinoma DLD cells

[4] = system: azoxymethane-induced aberrant crypt foci; settings: rat colon, Rao et al.; cited from earlier work
NMBA-induced tumors = settings: Chen et al. 2004; cited from earlier work

T1 sequence (P35228 whole entry): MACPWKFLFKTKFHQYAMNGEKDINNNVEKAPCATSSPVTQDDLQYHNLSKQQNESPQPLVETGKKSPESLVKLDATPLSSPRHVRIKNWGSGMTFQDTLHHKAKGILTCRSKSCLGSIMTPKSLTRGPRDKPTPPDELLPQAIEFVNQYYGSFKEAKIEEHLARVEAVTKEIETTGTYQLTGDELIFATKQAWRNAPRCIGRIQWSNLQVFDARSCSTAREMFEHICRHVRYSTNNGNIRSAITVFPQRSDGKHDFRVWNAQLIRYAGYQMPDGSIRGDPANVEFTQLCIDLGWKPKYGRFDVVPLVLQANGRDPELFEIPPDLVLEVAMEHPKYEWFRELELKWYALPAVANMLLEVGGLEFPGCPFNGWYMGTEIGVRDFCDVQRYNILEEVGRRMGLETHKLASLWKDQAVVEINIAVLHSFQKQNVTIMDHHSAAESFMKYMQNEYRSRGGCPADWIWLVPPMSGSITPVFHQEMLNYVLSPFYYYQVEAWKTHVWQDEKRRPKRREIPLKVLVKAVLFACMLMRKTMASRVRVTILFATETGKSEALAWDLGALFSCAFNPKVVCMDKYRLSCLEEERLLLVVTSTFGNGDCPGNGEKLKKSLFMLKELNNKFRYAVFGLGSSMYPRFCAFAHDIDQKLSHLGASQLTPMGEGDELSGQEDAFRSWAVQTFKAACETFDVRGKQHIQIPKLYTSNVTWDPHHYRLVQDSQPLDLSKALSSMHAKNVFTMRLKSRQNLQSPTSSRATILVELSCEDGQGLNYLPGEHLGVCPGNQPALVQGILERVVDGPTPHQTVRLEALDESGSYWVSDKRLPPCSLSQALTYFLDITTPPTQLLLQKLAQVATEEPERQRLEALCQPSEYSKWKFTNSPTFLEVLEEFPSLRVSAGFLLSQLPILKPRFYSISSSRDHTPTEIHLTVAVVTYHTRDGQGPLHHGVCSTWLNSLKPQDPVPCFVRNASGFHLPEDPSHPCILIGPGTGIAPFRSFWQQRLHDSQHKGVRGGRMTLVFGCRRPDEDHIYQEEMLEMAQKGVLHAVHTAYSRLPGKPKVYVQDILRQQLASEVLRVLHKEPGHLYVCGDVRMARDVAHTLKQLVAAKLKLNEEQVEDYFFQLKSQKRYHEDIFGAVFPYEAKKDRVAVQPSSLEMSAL

Compound | angiogenesis by inhibiting VEGF expression (VEGF) | expression of COX-2 (COX-2) | expression of iNOS (iNOS [1]) | other results
CS(=O)(=O)Nc1ccc([N+](=O)[O-])cc1OC1CCCCC1 [NS-398] | effectively block angiogenesis |  |  | 
OC[C@H]1O[C@@H](Oc2cc3c(O)cc(O)cc3[o+]c2-c2ccc(O)c(O)c2)[C@H](O)[C@@H](O)[C@@H]1O [cyanidin-3-O-glucoside] |  | suppressed | suppressed | 
C[C@@H]1O[C@@H](OC[C@H]2O[C@@H](Oc3cc4c(O)cc(O)cc4[o+]c3-c3ccc(O)c(O)c3)[C@H](O)[C@@H](O)[C@@H]2O)[C@H](O)[C@H](O)[C@H]1O [cyanidin-3-O-rutinoside] |  | suppressed | suppressed | 
Cc1nc(C2CCCCC2)c(-c2ccc(S(N)(=O)=O)c(F)c2)o1 [JTE-522] | effectively block angiogenesis |  |  | 
O=c1oc2c(O)c(O)cc3c(=O)oc4c(O)c(O)cc1c4c23 [Ellagic acid] |  |  |  | growth of oral cell lines [2]: potent, non-selective, inhibitor
N=C(N)SCCc1ccc(CCSC(=N)N)cc1 [PBIT, S,S-1,4-phenylene-bis(1,2-ethanediyl)bis-isothiourea] |  |  |  | selectivity for iNOS over endothelial and neuronal NOS (iNOS [3]): selectively inhibit iNOS; aberrant crypt foci formation, crypt multiplicity, and iNOS activity [4]: suppressed; NMBA-induced tumors in the rat esophagus (NMBA-induced tumors): inhibit
